Results taken from article doi:10.1101/2025.06.03.657556v1 (biorxiv, 2025).

Experiments:
RhoA (HEK 293F cells) = RhoA (HEK 293F cells) (Homo sapiens, UniProt P61586); assay: fluorescent RhoA-GTP probe, F488/F405 ratio, HEK […] cells; type: cell-based
RhoA = RhoA (Homo sapiens, UniProt P61586); assay: surface plasmon resonance; type: binding
RhoA, sequence (P61586 1-190): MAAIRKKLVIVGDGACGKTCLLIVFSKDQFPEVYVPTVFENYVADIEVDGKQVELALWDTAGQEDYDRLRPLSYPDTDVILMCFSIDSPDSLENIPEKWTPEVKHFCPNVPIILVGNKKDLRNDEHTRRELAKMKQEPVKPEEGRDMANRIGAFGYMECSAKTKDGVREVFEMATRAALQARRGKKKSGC

RhoA (HEK 293F cells), sequence (P61586 1-190): as above

- IC50 (RhoA (HEK 293F cells)): 25.7 ± 1.18 nM
- Kd (RhoA): 73.2 nM
SMILES: CCc1cccc([C@@H](O)CO)c1 [AH001]
